The source of these data is ChEMBL document CHEMBL4373699, “Structure-Guided Discovery of a Selective Mcl-1 Inhibitor with Cellular Activity” (J Med Chem, 2019).

Bounds are passed on as bounds.

Series [1] is described as follows: in vivo. Particulars: mouse, iv, 1 mg/kg.
Description: Volume of distribution in mouse at 1 mpk, iv
For series [2] the following is noted: human, plasma.
Description: Fraction unbound in human plasma
For series [3] the following is noted: mouse, plasma.
Description: Fraction unbound in mouse plasma
In the next series the target is Cytochrome P450 2C9 (Homo sapiens, UniProt P11712).
Another series addresses Cytochrome P450 3A4 (Homo sapiens, UniProt P08684). As to the kind of experiment: Inhibition of human CYP3A4. The format is ADME.
Series [4] can be described thus: in vivo. Particulars: mouse, po, 3 mg/kg.
Description: Oral bioavailability in mouse at 3 mpk
In another series the target is T1, Cytochrome P450 1A2 (Homo sapiens, UniProt P05177).
T1 sequence (P05177 whole entry): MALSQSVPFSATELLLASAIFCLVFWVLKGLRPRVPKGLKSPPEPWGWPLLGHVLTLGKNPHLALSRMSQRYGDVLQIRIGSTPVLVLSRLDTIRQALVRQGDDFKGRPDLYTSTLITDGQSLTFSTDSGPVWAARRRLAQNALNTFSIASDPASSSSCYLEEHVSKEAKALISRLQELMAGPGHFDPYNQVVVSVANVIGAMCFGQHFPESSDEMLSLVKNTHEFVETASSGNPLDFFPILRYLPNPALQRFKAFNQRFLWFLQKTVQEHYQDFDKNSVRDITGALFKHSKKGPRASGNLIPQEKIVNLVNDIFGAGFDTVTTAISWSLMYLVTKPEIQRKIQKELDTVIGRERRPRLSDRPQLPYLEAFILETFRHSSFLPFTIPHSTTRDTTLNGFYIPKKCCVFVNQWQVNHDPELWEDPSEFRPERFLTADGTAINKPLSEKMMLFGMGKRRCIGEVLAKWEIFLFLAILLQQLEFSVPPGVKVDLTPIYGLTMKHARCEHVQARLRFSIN

Series [5] can be described thus: in vivo. To be noted: mouse, iv, 1 mg/kg. The source holds these as a separate data set.
Description: Half-life in mouse at 1 mpk, iv
A short description of series [6]: in vivo. To be noted: mouse, plasma, iv, 1 mg/kg.
Description: Plasma clearance in mouse at 1 mpk, iv
Series [7] is described as follows: in vivo. To be noted: mouse, po, 3 mg/kg. The source holds these as a separate data set.
Description: AUCt in mouse at 3 mpk, po
Series [8] can be described thus: in vivo. To be noted: mouse, iv, 1 mg/kg. The source holds these as a separate data set.
Description: AUCt in mouse at 1 mpk, iv
The nature of series [9]: in vivo. Particulars: mouse, po, 3 mg/kg. The source holds these as a separate data set.
Description: Half-life in mouse at 3 mpk, po
Series [10] concerns the target Induced myeloid leukemia cell differentiation protein Mcl-1 (Homo sapiens, UniProt Q07820). The experiment in a line: biochemical.
The next series deals with Cytochrome P450 2D6 (Homo sapiens, UniProt P10635).
Sequence of Cytochrome P450 2D6 (P10635 whole entry): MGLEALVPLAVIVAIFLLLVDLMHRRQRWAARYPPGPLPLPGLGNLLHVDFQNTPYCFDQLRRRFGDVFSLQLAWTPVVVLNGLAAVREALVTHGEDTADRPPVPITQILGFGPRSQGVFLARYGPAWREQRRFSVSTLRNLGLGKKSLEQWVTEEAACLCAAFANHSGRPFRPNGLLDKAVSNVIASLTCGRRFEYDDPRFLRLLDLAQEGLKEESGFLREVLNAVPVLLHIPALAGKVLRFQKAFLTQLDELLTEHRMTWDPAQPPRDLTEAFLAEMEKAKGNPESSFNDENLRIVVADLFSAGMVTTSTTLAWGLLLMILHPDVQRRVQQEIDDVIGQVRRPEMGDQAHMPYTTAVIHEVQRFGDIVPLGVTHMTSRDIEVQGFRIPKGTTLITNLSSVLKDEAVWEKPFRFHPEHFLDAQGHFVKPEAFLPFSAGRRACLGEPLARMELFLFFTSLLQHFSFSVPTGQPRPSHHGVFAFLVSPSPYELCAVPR
A short description of series [11]: in vivo. To be noted: mouse, po, 3 mg/kg. This is another data set of the same source.
Description: Cmax in mouse at 3 mpk, po

Sequence of Cytochrome P450 2C9 (P11712 whole entry): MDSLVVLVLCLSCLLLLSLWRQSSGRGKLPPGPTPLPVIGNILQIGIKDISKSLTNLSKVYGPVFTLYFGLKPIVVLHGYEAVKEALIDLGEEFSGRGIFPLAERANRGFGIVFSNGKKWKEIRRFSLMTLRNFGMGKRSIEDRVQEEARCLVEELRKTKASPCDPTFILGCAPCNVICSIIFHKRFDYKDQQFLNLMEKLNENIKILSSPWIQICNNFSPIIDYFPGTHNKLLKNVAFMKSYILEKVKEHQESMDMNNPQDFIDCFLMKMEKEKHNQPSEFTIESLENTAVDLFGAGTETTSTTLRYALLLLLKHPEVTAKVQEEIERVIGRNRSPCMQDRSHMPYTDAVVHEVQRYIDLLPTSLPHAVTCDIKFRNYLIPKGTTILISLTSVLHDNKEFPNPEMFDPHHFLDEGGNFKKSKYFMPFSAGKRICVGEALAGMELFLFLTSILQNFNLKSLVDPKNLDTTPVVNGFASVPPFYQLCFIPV
Sequence of Induced myeloid leukemia cell differentiation protein Mcl-1 (Q07820 whole entry): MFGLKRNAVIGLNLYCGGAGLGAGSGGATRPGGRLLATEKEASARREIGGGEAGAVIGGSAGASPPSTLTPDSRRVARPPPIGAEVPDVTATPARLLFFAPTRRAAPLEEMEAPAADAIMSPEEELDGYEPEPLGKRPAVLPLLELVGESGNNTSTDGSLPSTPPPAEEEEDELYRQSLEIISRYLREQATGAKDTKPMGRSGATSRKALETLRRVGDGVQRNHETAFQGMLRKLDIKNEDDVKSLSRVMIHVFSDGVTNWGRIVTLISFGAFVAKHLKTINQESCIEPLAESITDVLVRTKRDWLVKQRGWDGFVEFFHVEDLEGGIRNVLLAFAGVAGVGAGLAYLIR
Sequence of Cytochrome P450 3A4 (P08684 whole entry): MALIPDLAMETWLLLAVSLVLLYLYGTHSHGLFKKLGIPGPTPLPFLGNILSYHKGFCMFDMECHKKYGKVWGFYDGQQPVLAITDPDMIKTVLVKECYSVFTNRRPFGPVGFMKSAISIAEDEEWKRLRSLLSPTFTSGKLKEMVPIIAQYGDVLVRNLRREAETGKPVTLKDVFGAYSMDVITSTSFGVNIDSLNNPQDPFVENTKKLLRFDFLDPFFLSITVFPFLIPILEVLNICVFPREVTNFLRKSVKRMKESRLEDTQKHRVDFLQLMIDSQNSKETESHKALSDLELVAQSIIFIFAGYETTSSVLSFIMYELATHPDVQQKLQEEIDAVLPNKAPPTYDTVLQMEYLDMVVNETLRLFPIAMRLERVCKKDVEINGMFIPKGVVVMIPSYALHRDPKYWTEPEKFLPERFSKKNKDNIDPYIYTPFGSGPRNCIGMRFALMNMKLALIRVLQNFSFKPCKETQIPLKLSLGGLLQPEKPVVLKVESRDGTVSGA
Description for Cytochrome P450 1A2: Inhibition of human CYP1A2
Description for Cytochrome P450 2C9: Inhibition of human CYP2C9
Description for Cytochrome P450 2D6: Inhibition of human CYP2D6

As to `CCc1sc2ncnc(N[C@H](Cc3ccccc3)C(=O)O)c2c1-c1ccc(OCCN2CCN(C)CC2)c(Cl)c1C` (stereo in doubt; 17a), the Vd in “in vivo [1]” is 0.9 L/kg. Besides, the Fu in series [2] and in series [3] was 0.2% in each case. The 50% inhibitory concentration (IC50) at Cytochrome P450 2C9 is not below 20 µM; at Cytochrome P450 3A4 it was 5.2 µM; against Cytochrome P450 1A2 it was not below 20 µM; against Cytochrome P450 2D6, not below 20 µM. For the same molecule, the bioavailability in the series “in vivo [4]” is 16%. For the same molecule, the half-life in the series “in vivo [5]” was 0.65 h; in the series “in vivo [9]” it was 3.8 h. The clearance in the series “in vivo [6]” worked out at 33 mL/min/kg. For the same molecule, the figures for the AUC(0-t) in “in vivo [7]” and in “in vivo [8]” were 168 ng·h/mL and 509 ng·h/mL, respectively. The molecule further had a Ki in series [10] of 0.22 µM. Moreover, the Cmax in “in vivo [11]” was found to be 64 ng/mL.
